Experimental findings from patent US20160067211A1, “PHARMACEUTICAL COMPOSITION” (Eberhard Karls Universitaet Tuebingen Medizinische Fakultaet, priority 2013, published 2016) are described below.

One experiment has as its system SK-MEL-28 melanoma cells. The experiment can be described thus: Real time cell monitoring assay (xCELLigence), SK-MEL-28. Type of experiment: cell-based, human. To be noted: SK-MEL-28, 20, 50 and 100 μM, 104 hours, vs. control. As for the experimental part:
FIG. 5: real time cell monitoring of BLM and SK-MEL-28 melanoma cells treated with 6-PN and 8-PN. (A) BML and SK-MEL-28 cells were treated 24 hours after seeding with different concentrations of 6-PN and 8-PN (20 μM, 50 μM and 100 μM) over a 104 hour time period. The cellular impedance was measured over the entire observation time using the xCELLigence™ SP system and is depicted by the cell index (CI). All CI-values were normalized shortly before the treatment started. […] As a positive control, Triton X-100 0.1% was used to induce cell death. Shown are the mean±SD of three independent experiments, each performed in triplicates (B, C). […]
The human melanoma cell lines BLM and SK-MEL-28 (2.5×10^3 cells/well) were seeded in 96 well plates. The cells were treated after 24 hours with different concentrations of 6-PN or 8-PN (20 μM, 50 μM and 100 μM) and monitored by measurements of electrical impedance in 15 minutes intervals for an overall time span of in total 104 hours using the xCELLigencer® SP Systems (Roche Applied Science). The cell index values were calculated using the RTCA software (1.0.0.0805). […]
The human metastatic melanoma cell lines BLM and SK-MEL-28 were treated once with rising concentrations of 6-PN or 8-PN (20 μM, 50 μM and 100 μM) and monitored continuously for an overall time span of 104 hours using a real time monitoring assay (FIG. 5A). […]

The subject of experiment [1] is MCF-7 breast cancer cells. The experiment can be described thus: MUH proliferation assay, MCF-7. Type of experiment: cell-based. To be noted: MCF-7, rising concentrations 0.1 μM to 100 μM, 48 hours. As for the experimental part:
FIG. 6: 6-PN and 8-PN inhibit the growth of MCF-7 and HT-29. (A, B) MUH proliferation assay of HT-29 colon cancer cells and MCF-7 breast cancel cells treated with increasing concentrations of 6-PN and 8-PN (0.1 μM to 100 μM) for 48 hours. Shown are the mean±S.A.; the experiments were performed in quadruplicates.
The cells were seeded in triplicates in 96-well plates at a density of 2,500 cells per well in 50 μl medium (5×10^4 cells per milliliter). After 24 hours, the medium was replaced by medium containing 6-PN, 8-PN (dissolved in DMSO), TSA (dissolved in EtOH) or SAHA (dissolved in DMSO) at the concentrations to be tested with or without the addition of the necrosis inhibitor IM-54 at 5 μM (Calbiochem, Darmstadt, Germany). Cells treated with culture medium without or with DMSO served as controls. The assay was started following an incubation of 24 hours. The medium was discarded, each well was washed two times with PBS (without Ca^++ and Mg^++) and 100 μl of a solution containing […] of 4-methyl umbellipheryl heptanoate per ml PBS was added. Plates were incubated at 37° C. for 1 hour and measured in a Fluoroskan II (Lab Systems, Helsinki, Finland) with a […]. The intensity of fluorescence indicates the number of viable cells in the wells. […]

For a further experiment, the system named is BLM melanoma cells. The experiment can be described thus: Organotypic human epidermal skin reconstructs, BLM. Type of experiment: cell-based. The conditions noted are these: 100 μM, 40× magnification. The protocol:
FIG. 11: 6-PN and 8-PN reduce proliferation and invasion of BLM and LOXIMVI melanoma cells in human epidermal skin reconstructs and induce little embryo toxicity. (A) BLM melanoma cells and keratinocytes were seeded on top of a collagen matrix populated by fibroblasts. After 16 days a keratinizing stratified epithelium with a rudimentary corium is formed. […] (B) Similar results were obtained for LOXIMVI melanoma cells under the same treatment conditions. Only nests of dead, MIB1 negative LOXIMVI cells were detected after treatment with the PNs. […]
In this assay, keratinocytes and melanoma cells are seeded on top of a collagen matrix populated by fibroblasts. […] Untreated control BLM cells (depicting 70-80% proliferation, determined by MIB1 immunhistochemistry) had formed a large tumor in the epidermal part of the reconstruct and had invaded the corium (FIG. 11A, upper panel). To determine the amount of proliferating cells, the number of MIB1 positive melanoma cells per power field in the epidermal part of the reconstruct at the epidermal-dermal border was counted (40× magnification, n=5 adjacent fields examined). Further, the number of melanoma cells invading the dermal part of the reconstruct was counted in the same high power fields. In reconstructs with untreated BLM cells, 103±15 MIB1 positive cells and 39±13 invasive cells were counted (FIG. 11A, upper panel). […]

Experiment [2] relates to all tested cancer cells (Tab. 1). The experiment can be described thus: Proliferation of all tested tumor cell lines (Table 1). The conditions noted are these: 19 tumor cell lines of Tab. 1. Type of experiment: cell-based. From the text:
The inventors have tested 19 different tumor cell lines in total, including five melanoma cell lines, two liver cancer cell lines, three breast cancer cell lines, three colon cancer cell lines, two prostate cancer cell lines, two lung cancer cell lines and to renal cancer cell lines.

Take `CC(C)=CCc1c(O)cc(O)c2c1OC(c1ccc(O)cc1)CC2=O` (centres unmarked) [8-PN, 5,7-Dihydroxy-2-(4-hydroxy-phenyl)-8-(3-methyl-but-2-enyl)-chroman-4-one]: in the experiment with SK-MEL-28 melanoma cells, the “normalized cell index (CI)” value is given as “descended over time”. Also, the cell proliferation result in experiment [1] is “severe reduction”. For the same compound, the “invasive cells per high power field” value in the experiment on BLM melanoma cells (untreated 39±13) is 6±2. Besides, the “MIB1 positive cells per high power field” value in the experiment with BLM melanoma cells (untreated 103±15) worked out at 16±4. Further, the “cell proliferation in all tested cancer cells” value in experiment [2] was “effectively reduce cell proliferation”.
